# Results reported in US20050148671A1, “(2S)-amino(phenyl)acetic acid and derivatives as alpha2delta voltage-gated calcium channel ligands” (priority 2004, published 2005).
# Test system: mechanical allodynia in spinal nerve ligated rats
# Assay: Determination of analgesic effect: mechanical allodynia (von Frey) after L5/L6 spinal nerve ligation
# Details: oral, in PEG400, 60 minutes before von Frey testing; percentage of maximal protective effect relative to vehicle; male Sprague Dawley rats
# Source text: Male Sprague Dawley rats (80-100 g) were purchased from Charles River (Portage, Mich.). Prior to surgery, animals were group-housed and maintained in a temperature regulated environment (lights on between 7:00 a.m. and 8:00 p.m.). Following nerve ligation surgery, animals were group housed. Two weeks after surgery, experimentation began. Rats had access to food and water ad libitum.
# Briefly, an incision was made on the dorsal portion of the hip and the muscle was blunt dissected to reveal the spinal processes. The L6 transverse process was removed, and the left L5 and L6 spinal nerves were tightly ligated with a 5.0 braided silk suture. The wound was cleaned, the membrane sewn with a 4.0 dissolvable Vicryl suture and the skin closed with wound clips.
# For the assessment of neuropathic pain, mechanical allodynia in the affected paw of animals that had undergone spinal nerve ligation was evaluated using von Frey filaments. […] Using the Dixons Up-Down method, a baseline level of allodynia was determined to have a withdrawal threshold of 3 g of pressure.
# Rats were placed in groups labeled A-D with six rats per group. Group A was administered 1.0 mL/kg of vehicle (100% PEG400). […] Data are expressed as the percentage of maximal protective effect relative to the control (vehicle treated) animals.
row,Compound,EC50
1,N[C@H](C(=O)O)c1ccccc1 [(2S)-amino(phenyl)acetic acid],50 µmol/kg
2,NCC1(CC(=O)O)CCCCC1 [Gabapentin],160 µmol/kg
